The values below come from patent US20260317312A1, “ISOXAZOLIDINES AS RIPK1 INHIBITORS AND USE THEREOF” (GENZYME CORPORATION, priority 2023, published 2026).

pIC50: −log10 of the molar value.

Assay [1] concerns the target T1, hRIPK1 (aa 1-375) fusion protein (Homo sapiens, UniProt Q13546).
T1 construct: hRIPK1 (aa 1-375) fusion protein
T1 sequence (Q13546 1-375): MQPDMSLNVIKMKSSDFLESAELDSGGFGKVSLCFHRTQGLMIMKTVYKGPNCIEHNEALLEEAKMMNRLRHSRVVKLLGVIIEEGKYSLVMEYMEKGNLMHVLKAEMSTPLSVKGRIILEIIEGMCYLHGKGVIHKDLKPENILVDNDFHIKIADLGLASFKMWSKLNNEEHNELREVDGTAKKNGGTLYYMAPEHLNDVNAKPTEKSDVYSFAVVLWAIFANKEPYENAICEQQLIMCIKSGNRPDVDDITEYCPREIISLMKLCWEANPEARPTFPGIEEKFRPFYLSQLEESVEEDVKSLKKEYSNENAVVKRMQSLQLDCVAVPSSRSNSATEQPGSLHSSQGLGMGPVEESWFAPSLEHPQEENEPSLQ
The assay is described as follows: Receptor-Interacting Protein Kinase 1 inhibition, ADP Glo assay (conversion of ATP to ADP due to autophosphorylation). It is filed as biochemical. Particulars: ATP 50 μM, 30 min preincubation, 240 min incubation, room temperature, DMSO 1%. The procedure, abridged: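 The readout was ADP-Glo luminescence after a 240 min rt autophosphorylation reaction with 50 μM ATP, following 30 min preincubation of 3.6 μg/ml hRIPK1 (aa 1-375) fusion with compound at 33300-1.69 nM final in 1% DMSO. Values came from Levenberg-Marquardt nonlinear fits.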
(In general: In ADP-Glo the light output rises with the ADP produced.)

In assay [2] the test system is U937 cells. As to the kind of experiment: Cellular assay in U937 cells to measure activity of RIPK1-inhibitors on cell death (necroptosis). It is filed as cell-based. Conditions: overnight (18 to 24 hrs), 37° C., MTS readout.
Setting [3] is: Homo sapiens, U-937, TNFα/zVAD.fmk induced cell death (necroptosis).
The mark [4] stands for this setting: TNFα/zVAD.fmk induced cell death (necroptosis).

For `N#Cc1cc(F)cc([C@@H]2CCON2C(=O)[C@H]2CC[C@H](COc3cc(C#N)ccn3)CC2)c1` [Compound 91, trans-2-[[4-[(3S)-3-(3-cyano-5-fluoro-phenyl)isoxazolidine-2-carbonyl]cyclohexyl]methoxy]pyridine-4-carbonitrile], the pIC50 (usually −log10 of the IC50, conventionally taken in molar units) in assay [1] is 7.85; in assay [2] (setting [3]), 7.41.

Regarding `NC(=O)c1cccc(OC[C@H]2CC[C@H](C(=O)N3OCC[C@H]3c3ccccn3)CC2)c1` [Compound 131, trans-3-[[4-[(3S)-3-(2-pyridyl)isoxazolidine-2-carbonyl]cyclohexyl]methoxy]benzamide], the figures for the pIC50 in assay [1] and in assay [2] (setting [3]) were 7.33 and 6.63, respectively.

In the case of `C[C@]1(C(=O)N2OCC[C@H]2c2cncc(C#N)c2)C[C@@H](Nc2nccc(C(N)=O)n2)C1` [Compound 7, cis-2-((3-((S)-3-(5-cyanopyridin-3-yl)isoxazolidine-2-carbonyl)-3-methylcyclobutyl)amino)pyrimidine-4-carboxamide], the pIC50 in assay [1] is 7.64; in assay [2] (setting [3]) it was 6.47.

As to `C[C@]1(C(=O)N2OCC[C@H]2c2cc(F)cc(F)c2)C[C@@H](Nc2nccc(C(N)=O)n2)C1` [Compound 6, cis-2-((3-((S)-3-(3,5-difluorophenyl)isoxazolidine-2-carbonyl)-3-methylcyclobutyl)amino)pyrimidine-4-carboxamide], the pIC50 in assay [1] is 7.68; in assay [2] (setting [3]), 8.22.

For the compound `N#Cc1cc(F)cc([C@@H]2CCON2C(=O)C2CCCC(COc3cc(C(N)=O)ncn3)CC2)c1` (single isomer, unassigned; stereoisomer 1) [Compound 126], the figures for the pIC50 in assay [1] and in assay [2] (setting [4]) were 7.60 and 7.27, respectively.

For `N#Cc1cc(F)cc([C@@H]2CCON2C(=O)[C@H]2CC[C@H](COc3ccnc(C#N)c3)CC2)c1` [Compound 93, trans-4-[[4-[(3S)-3-(3-cyano-5-fluoro-phenyl)isoxazolidine-2-carbonyl]cyclohexyl]methoxy]pyridine-2-carbonitrile], the pIC50 in assay [1] is 7.74; in assay [2] (setting [3]), 7.89.

For the compound `NC(=O)c1ccc(OC[C@H]2CC[C@H](C(=O)N3OCC[C@H]3c3cnccn3)CC2)nc1` [Compound 102, trans-6-[[4-[(3S)-3-pyrazin-2-ylisoxazolidine-2-carbonyl]cyclohexyl]methoxy]pyridine-3-carboxamide], the results for the pIC50 in assay [1] and in assay [2] (setting [3]) were 7.33 and 6.59, respectively.

In the case of `N#Cc1cc(F)cc([C@@H]2CCON2C(=O)[C@H]2C[C@@H](n3ccc4cc(F)ccc43)C2)c1` [Compound 107, cis-3-fluoro-5-[(3S)-2-[3-(5-fluoroindol-1-yl)cyclobutanecarbonyl]isoxazolidin-3-yl]benzonitrile], the pIC50 in assay [1] was 7.72; in assay [2] (setting [3]) it was 6.67.

For the compound `N#Cc1cc(F)cc([C@@H]2CCON2C(=O)[C@H]2C[C@H](n3ccc4cc(F)ccc43)C2)c1` [Compound 105, trans-3-fluoro-5-[(3S)-2-[3-(5-fluoroindol-1-yl)cyclobutanecarbonyl]isoxazolidin-3-yl]benzonitrile], the values for the pIC50 in assay [1] and in assay [2] (setting [3]) were 7.44 and 6.69, respectively.

With `N#Cc1cc(N[C@H]2C[C@@H](C(=O)N3OCC[C@H]3c3cc(F)cc(F)c3)C2)ncn1` [Compound 18, cis-6-((3-((S)-3-(3,5-difluorophenyl)isoxazolidine-2-carbonyl)cyclobutyl)amino)pyrimidine-4-carbonitrile], the pIC50 in assay [1] is 7.39; in assay [2] (setting [3]), 6.79.

For the compound `O=C([C@H]1C[C@@H](n2ncc3cc(F)ccc32)C1)N1OCC[C@H]1c1cc(F)cc(F)c1` [Compound 96, cis-[(3S)-3-(3,5-difluorophenyl)isoxazolidin-2-yl]-[3-(5-fluoroindazol-1-yl)cyclobutyl]methanone], the pIC50 was 7.33 in assay [1] and 6.04 in assay [2] (setting [3]).

For the compound `N#Cc1cc(N[C@H]2C[C@@H](C(=O)N3OCC[C@H]3c3ccc(F)c(F)c3)C2)ncn1` [Compound 22, cis-6-((3-((S)-3-(3,4-difluorophenyl)isoxazolidine-2-carbonyl)cyclobutyl)amino)pyrimidine-4-carbonitrile], the pIC50 in assay [1] was 7.40; in assay [2] (setting [3]), 6.50.

For `O=C([C@H]1CC[C@@H](COc2cc(Cl)ncn2)CC1)N1OCC[C@H]1c1cc(F)cc(F)c1` [Compound 56, cis-(4-(((6-chloropyrimidin-4-yl)oxy)methyl)cyclohexyl)((S)-3-(3,5-difluorophenyl)isoxazolidin-2-yl)methanone], the negative-log IC50 (pIC50) is 7.33 in assay [1] and 6.90 in assay [2] (setting [3]).

`N#Cc1cncc([C@@H]2CCON2C(=O)[C@H]2CC[C@H](COc3cc(C#N)ccn3)CC2)c1` [Compound 94, trans-5-((S)-2-(4-(((4-cyanopyridin-2-yl)oxy)methyl)cyclohexane-1-carbonyl)isoxazolidin-3-yl)nicotinonitrile]: the pIC50 in assay [1] was 7.24; in assay [2] (setting [3]) it was 6.86.

In the case of `N#Cc1cncc([C@@H]2CCON2C(=O)[C@H]2CC[C@H](COc3ccc(Cl)c(C(N)=O)c3)CC2)c1` [Compound 75, trans-2-chloro-5-((4-((S)-3-(5-cyanopyridin-3-yl)isoxazolidine-2-carbonyl)cyclohexyl)methoxy)benzamide], the pIC50 was 7.37 in assay [1] and 6.65 in assay [2] (setting [3]).

Regarding `O=C1CCC(=O)N1c1ccc(Cl)c(OC[C@H]2CC[C@H](C(=O)N3OCC[C@H]3c3cc(F)cc(F)c3)CC2)c1` [Compound 58, trans-1-(4-chloro-3-((4-((S)-3-(3,5-difluorophenyl)isoxazolidine-2-carbonyl)cyclohexyl)methoxy)phenyl)pyrrolidine-2,5-dione], the pIC50 in assay [1] is 7.36; in assay [2] (setting [3]), 6.98.

As for `N#Cc1cc(F)cc(N[C@H]2C[C@@H](C(=O)N3OCC[C@H]3c3cccc(F)c3)C2)c1` [Compound 26, cis-3-fluoro-5-((3-((S)-3-(3-fluorophenyl)isoxazolidine-2-carbonyl)cyclobutyl)amino)benzonitrile], the pIC50 in assay [1] is 7.28; in assay [2] (setting [3]) it was 6.82.

For the compound `N#Cc1cc(F)cc([C@@H]2CCON2C(=O)[C@H]2CC[C@H](COc3cccc(S(N)(=O)=O)c3)CC2)c1` [Compound 77, trans-3-((4-((S)-3-(3-cyano-5-fluorophenyl)isoxazolidine-2-carbonyl)cyclohexyl)methoxy)benzenesulfonamide], the values for the pIC50 in assay [1] and in assay [2] (setting [3]) were 7.28 and 7.32, respectively.

With `N#Cc1cc(F)cc([C@@H]2CCON2C(=O)C2CCCC(COc3cc(C(N)=O)ncn3)CC2)c1` (single isomer, unassigned; stereoisomer 2) [Compound 127], the values for the pIC50 in assay [1] and in assay [2] (setting [4]) were 7.77 and 7.51, respectively.

Consider `NC(=O)c1cc(F)cc(OC[C@H]2CC[C@H](C(=O)N3OCC[C@H]3c3cnccn3)CC2)c1` [Compound 112, trans-3-fluoro-5-[[4-[(3S)-3-pyrazin-2-ylisoxazolidine-2-carbonyl]cyclohexyl]methoxy]benzamide], for which the pIC50 in assay [1] was 7.39; in assay [2] (setting [3]), 7.33.

For the compound `NC(=O)c1ccnc(N[C@H]2C[C@H](C(=O)N3OCC[C@H]3c3cc(F)cc(F)c3)C2)n1` [Compound 4, trans-2-((3-((S)-3-(3,5-difluorophenyl)isoxazolidine-2-carbonyl)cyclobutyl)amino)pyrimidine-4-carboxamide], the pIC50 in assay [1] was 7.05; in assay [2] (setting [3]), 6.44.

On to `N#Cc1cncc([C@@H]2CCON2C(=O)[C@H]2CC[C@H](COc3cccc(C(N)=O)c3)CC2)c1` [Compound 73, trans-3-((4-((S)-3-(5-cyanopyridin-3-yl)isoxazolidine-2-carbonyl)cyclohexyl)methoxy)benzamide], for which the pIC50 in assay [1] is 7.54; in assay [2] (setting [3]), 7.59.
